How the values were obtained:
Assay type in all cases: functional
HOP-92 = test: Growth inhibition of human HOP92 cells assessed as cell growth at 10^-5 M incubated for 48 hrs by sulforhodamine B assay relative to control; settings: HOP-92, 48 h, read-out: Activity
T47D = test: Growth inhibition of human T47D cells assessed as cell growth at 10^-8 M incubated for 48 hrs by sulforhodamine B assay relative to control; settings: read-out: Activity
NCI-H322M = test: Growth inhibition of human NCI-H322M cells assessed as cell growth at 10^-4 M incubated for 48 hrs by sulforhodamine B assay relative to control; settings: read-out: Activity
DU-145 = test: Growth inhibition of human DU145 cells assessed as cell growth at 10^-6 M incubated for 48 hrs by sulforhodamine B assay relative to control; settings: DU-145, 48 h, read-out: Activity
SNB-75 = test: Growth inhibition of human SNB75 cells assessed as cell growth at 10^-4 M incubated for 48 hrs by sulforhodamine B assay relative to control; settings: SNB-75, 48 h, read-out: Activity
OVCAR-5 = test: Growth inhibition of human OVCAR5 cells assessed as cell growth at 10^-8 M incubated for 48 hrs by sulforhodamine B assay relative to control; settings: OVCAR-5, 48 h, read-out: Activity
HCT-116 = test: Growth inhibition of human HCT116 cells assessed as cell growth at 10^-5 M incubated for 48 hrs by sulforhodamine B assay relative to control; settings: HCT-116, 48 h, read-out: Activity
SR = test: Growth inhibition of human SR cells assessed as cell growth at 10^-7 M incubated for 48 hrs by sulforhodamine B assay relative to control; settings: read-out: Activity
UO-31 = test: Growth inhibition of human UO31 cells assessed as cell growth at 10^-7 M incubated for 48 hrs by sulforhodamine B assay relative to control; settings: UO-31, 48 h, read-out: Activity
786-0 = test: Growth inhibition of human 786-0 cells assessed as cell growth at 10^-4 M incubated for 48 hrs by sulforhodamine B assay relative to control; settings: 786-0, 48 h, read-out: Activity
ACHN [1] = test: Growth inhibition of human ACHN cells assessed as cell growth at 10^-6 M incubated for 48 hrs by sulforhodamine B assay relative to control; settings: read-out: Activity
K562 [2] = test: Growth inhibition of human K562 cells assessed as cell growth at 10^-7 M incubated for 48 hrs by sulforhodamine B assay relative to control; settings: K562, 48 h, read-out: Activity
HOP-62 [3] = test: Growth inhibition of human HOP62 cells assessed as cell growth at 10^-7 M incubated for 48 hrs by sulforhodamine B assay relative to control; settings: HOP-62, 48 h, read-out: Activity
SK-OV-3 [4] = test: Growth inhibition of human SKOV3 cells assessed as cell growth at 10^-7 M incubated for 48 hrs by sulforhodamine B assay relative to control; settings: SK-OV-3, 48 h, read-out: Activity
SK-OV-3 [5] = test: Growth inhibition of human SKOV3 cells assessed as cell growth at 10^-4 M incubated for 48 hrs by sulforhodamine B assay relative to control; settings: SK-OV-3, 48 h, read-out: Activity
ACHN [6] = test: Growth inhibition of human ACHN cells assessed as cell growth at 10^-4 M incubated for 48 hrs by sulforhodamine B assay relative to control; settings: read-out: Activity
UACC-257 = test: Growth inhibition of human UACC257 cells assessed as cell growth at 10^-4 M incubated for 48 hrs by sulforhodamine B assay relative to control; settings: UACC-257, 48 h, read-out: Activity
MDA-MB-231 = test: Growth inhibition of human MDA-MB-231 cells assessed as cell growth at 10^-4 M incubated for 48 hrs by sulforhodamine B assay relative to control; settings: MDA-MB-231, 48 h, read-out: Activity
CCRF-CEM = test: Growth inhibition of human CCRF-CEM cells assessed as cell growth at 10^-6 M incubated for 48 hrs by sulforhodamine B assay relative to control; settings: read-out: Activity
OVCAR-3 = test: Growth inhibition of human OVCAR3 cells assessed as cell growth at 10^-6 M incubated for 48 hrs by sulforhodamine B assay relative to control; settings: OVCAR-3, 48 h, read-out: Activity
BT-549 = test: Growth inhibition of human BT549 cells assessed as cell growth at 10^-5 M incubated for 48 hrs by sulforhodamine B assay relative to control; settings: BT-549, 48 h, read-out: Activity
SK-MEL-28 = test: Growth inhibition of human SK-MEL-28 cells assessed as cell growth at 10^-7 M incubated for 48 hrs by sulforhodamine B assay relative to control; settings: SK-MEL-28, 48 h, read-out: Activity
HCC 2998 = test: Growth inhibition of human HCC2998 cells assessed as cell growth at 10^-6 M incubated for 48 hrs by sulforhodamine B assay relative to control; settings: HCC 2998, 48 h, read-out: Activity
COLO 205 = test: Growth inhibition of human COLO205 cells assessed as cell growth at 10^-5 M incubated for 48 hrs by sulforhodamine B assay relative to control; settings: COLO 205, 48 h, read-out: Activity
SW-620 [7] = test: Growth inhibition of human SW620 cells assessed as cell growth at 10^-5 M incubated for 48 hrs by sulforhodamine B assay relative to control; settings: SW-620, 48 h, read-out: Activity
HOP-62 [8] = test: Growth inhibition of human HOP62 cells assessed as cell growth at 10^-8 M incubated for 48 hrs by sulforhodamine B assay relative to control; settings: HOP-62, 48 h, read-out: Activity
MDA-MB-435 = test: Growth inhibition of human MDA-MB-435 cells assessed as cell growth at 10^-8 M incubated for 48 hrs by sulforhodamine B assay relative to control; settings: MDA-MB-435, 48 h, read-out: Activity
NCI/ADR-RES = test: Growth inhibition of human NCI/ADR-RES cells assessed as cell growth at 10^-8 M incubated for 48 hrs by sulforhodamine B assay relative to control; settings: read-out: Activity
SF-268 = test: Growth inhibition of human SF268 cells assessed as cell growth at 10^-8 M incubated for 48 hrs by sulforhodamine B assay relative to control; settings: SF-268, 48 h, read-out: Activity
SW-620 [9] = test: Growth inhibition of human SW620 cells assessed as cell growth at 10^-6 M incubated for 48 hrs by sulforhodamine B assay relative to control; settings: SW-620, 48 h, read-out: Activity
SF-539 = test: Growth inhibition of human SF539 cells assessed as cell growth at 10^-8 M incubated for 48 hrs by sulforhodamine B assay relative to control; settings: SF-539, 48 h, read-out: Activity
KM12 = test: Growth inhibition of human KM12 cells assessed as cell growth at 10^-5 M incubated for 48 hrs by sulforhodamine B assay relative to control; settings: KM12, 48 h, read-out: Activity
Malme-3M = test: Growth inhibition of human MALME-3M cells assessed as cell growth at 10^-7 M incubated for 48 hrs by sulforhodamine B assay relative to control; settings: read-out: Activity
K562 [10] = test: Growth inhibition of human K562 cells assessed as cell growth at 10^-5 M incubated for 48 hrs by sulforhodamine B assay relative to control; settings: K562, 48 h, read-out: Activity

CCCCOc1nc2ccccc2cc1C1CNC(=O)c2ccccc2N1 (centres undefined)
growth at 10 µM (HOP-92): 21%
growth at 0.01 µM (T47D): 86%
growth at 100 µM (NCI-H322M): -16%
growth at 1 µM (DU-145): 95%
growth at 100 µM (SNB-75): -79%
growth at 0.01 µM (OVCAR-5): 98%
growth at 10 µM (HCT-116): -19%
growth at 0.1 µM (SR): 64%
growth at 0.1 µM (UO-31): 86%
growth at 100 µM (786-0): -76%
growth at 1 µM (ACHN [1]): 91%
growth at 0.1 µM (K562 [2]): 95%
growth at 0.1 µM (HOP-62 [3]): 98%
growth at 0.1 µM (SK-OV-3 [4]): 98%
growth at 100 µM (SK-OV-3 [5]): -21%
growth at 100 µM (ACHN [6]): -71%
growth at 100 µM (UACC-257): 6%
growth at 100 µM (MDA-MB-231): -53%
growth at 1 µM (CCRF-CEM): 85%
growth at 1 µM (OVCAR-3): 64%
growth at 10 µM (BT-549): 36%
growth at 0.1 µM (SK-MEL-28): 98%
growth at 1 µM (HCC 2998): 93%
growth at 10 µM (COLO 205): -43%
growth at 10 µM (SW-620 [7]): 18%
growth at 0.01 µM (HOP-62 [8]): 93%
growth at 0.01 µM (MDA-MB-435): 95%
growth at 0.01 µM (NCI/ADR-RES): 94%
growth at 0.01 µM (SF-268): 95%
growth at 1 µM (SW-620 [9]): 66%
growth at 0.01 µM (SF-539): 89%
growth at 10 µM (KM12): 17%
growth at 0.1 µM (Malme-3M): 92%
growth at 10 µM (K562 [10]): 7%

— ChEMBL document CHEMBL4138146, “A Schmidt rearrangement-mediated synthesis of novel tetrahydro-benzo[1,4]diazepin-5-ones as potential anticancer and antiprotozoal agents” (Eur J Med Chem, 2017)
